Test results as given in ChEMBL document CHEMBL1155012, “Modulation of peripheral serotonin levels by novel tryptophan hydroxylase inhibitors for the potential treatment of functional gastrointestinal disorders” (J Med Chem, 2008).
Active and inactive are the calls of the source. The rule behind the calls is not given here.

Columns and labels:
[1] = target: T1, Tryptophan 5-hydroxylase 1 (Homo sapiens, UniProt P17752); assay: Inhibition of TPH1
T1 sequence (P17752 whole entry): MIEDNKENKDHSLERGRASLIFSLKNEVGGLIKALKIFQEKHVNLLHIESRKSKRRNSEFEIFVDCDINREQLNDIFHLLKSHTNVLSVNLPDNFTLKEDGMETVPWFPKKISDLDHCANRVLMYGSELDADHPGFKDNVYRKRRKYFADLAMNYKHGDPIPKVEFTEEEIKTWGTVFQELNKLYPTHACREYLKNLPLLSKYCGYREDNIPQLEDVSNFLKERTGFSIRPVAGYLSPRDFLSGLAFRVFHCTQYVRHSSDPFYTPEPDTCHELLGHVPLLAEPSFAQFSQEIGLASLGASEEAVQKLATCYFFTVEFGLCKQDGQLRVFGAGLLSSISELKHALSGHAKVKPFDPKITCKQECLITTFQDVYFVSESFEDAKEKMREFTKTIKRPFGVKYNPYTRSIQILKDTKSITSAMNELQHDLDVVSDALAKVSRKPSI

[2] = target: T2, Tryptophan 5-hydroxylase 1 (Rattus norvegicus, UniProt P09810); assay: Inhibition of TPH1 in RBL cells assessed as inhibition of serotonin biosynthesis; assay type: cell-based
T2 sequence (P09810 whole entry): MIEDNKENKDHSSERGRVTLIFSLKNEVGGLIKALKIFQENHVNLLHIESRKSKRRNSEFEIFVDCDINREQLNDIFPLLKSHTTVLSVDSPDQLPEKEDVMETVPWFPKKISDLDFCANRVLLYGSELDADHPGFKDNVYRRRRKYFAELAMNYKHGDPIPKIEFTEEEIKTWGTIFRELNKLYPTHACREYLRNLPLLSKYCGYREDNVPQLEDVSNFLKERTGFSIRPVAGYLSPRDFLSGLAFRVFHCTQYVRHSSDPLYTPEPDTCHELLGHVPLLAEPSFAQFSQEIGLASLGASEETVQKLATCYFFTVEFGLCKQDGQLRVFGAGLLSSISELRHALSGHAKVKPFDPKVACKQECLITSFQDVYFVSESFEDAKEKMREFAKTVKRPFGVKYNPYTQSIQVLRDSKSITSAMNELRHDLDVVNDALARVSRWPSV

Mus musculus [3] = assay: Reduction of 5HT level in mouse intestine at 45 mg/kg, po twice a day after 3 days; assay type: functional, organism-based; parameters: dose 45 mg/kg
Mus musculus [4] = assay: Reduction of 5HT level in mouse intestine at 90 mg/kg, po twice a day after 3 days; assay type: functional, organism-based; parameters: dose 90 mg/kg
Mus musculus [5] = assay: Reduction of 5HT level in mouse brain at 45 mg/kg, po twice a day after 3 days; assay type: functional, organism-based; parameters: dose 45 mg/kg
Mus musculus [6] = assay: Reduction of 5HT level in mouse brain at 90 mg/kg, po twice a day after 3 days; assay type: functional, organism-based; parameters: dose 90 mg/kg
[7] = Volume of distribution at steady state in C57 albino mouse 1 mg/kg, iv; assay type: ADME, organism-based; parameters: dose 1 mg/kg, route intravenous; conditions: in vivo, read-out: Vdss
[8] = Half life in C57 albino mouse at 1 mg/kg, iv; assay type: ADME, organism-based; parameters: dose 1 mg/kg, route intravenous; conditions: in vivo
[9] = Tmax in C57 albino mouse at 10 mg/kg, po; assay type: ADME, organism-based; parameters: dose 10 mg/kg, route oral; conditions: in vivo
[10] = Cmax in C57 albino mouse at 10 mg/kg, po; assay type: ADME, organism-based; parameters: dose 10 mg/kg, route oral; conditions: in vivo
[11] = AUC (0 to 6 hrs) in C57 albino mouse at 1 mg/kg, iv; assay type: ADME, organism-based; parameters: time < 6 hr, dose 1 mg/kg, route intravenous; conditions: plasma
[12] = AUC (0 to 24 hrs) in C57 albino mouse at 10 mg/kg, po; assay type: ADME, organism-based; parameters: time < 24 hr, dose 10 mg/kg, route oral; conditions: plasma
[13] = AUC (0 to infinity) in C57 albino mouse at 1 mg/kg, iv; assay type: ADME, organism-based; parameters: time infinity, dose 1 mg/kg, route intravenous; conditions: plasma
[14] = Oral bioavailability in C57 albino mouse at 10 mg/kg; assay type: ADME, organism-based; conditions: in vivo
[15] = Drug level in C57 albino mouse brain at 10 mg/kg, po after 2 hrs; assay type: ADME, organism-based; parameters: dose 10 mg/kg, route oral; conditions: read-out: Drug uptake
[16] = Drug level in C57 albino mouse brain at 10 mg/kg, po after 6 hrs; assay type: ADME, organism-based; parameters: dose 10 mg/kg, route oral; conditions: read-out: Drug uptake
[17] = Drug level in C57 albino mouse brain after 24 hrs; assay type: ADME, tissue-based; conditions: read-out: Drug uptake
Mus musculus [18] = assay: Reduction of 5HT level in mouse intestine at 30 mg/kg, po twice a day; assay type: functional; parameters: scale not given: the % may be the effect or the level left
Mus musculus [19] = assay: Reduction of 5HT level in mouse intestine at 90 mg/kg, po twice a day; assay type: functional; parameters: scale not given: the % may be the effect or the level left
Mus musculus [20] = assay: Reduction of 5HT level in mouse colon at 30 mg/kg, po twice a day; assay type: functional; parameters: scale not given: the % may be the effect or the level left
Mus musculus [21] = assay: Reduction of 5HT level in mouse colon at 90 mg/kg, po twice a day; assay type: functional; parameters: scale not given: the % may be the effect or the level left
[22] = Ratio of drug level in brain to plasma in C57 albino mouse at 10 mg/kg, po after 2 hrs; assay type: ADME, organism-based; parameters: dose 10 mg/kg, route oral; conditions: read-out: BPR
[23] = Ratio of drug level in brain to plasma in C57 albino mouse at 10 mg/kg, po after 6 hrs; assay type: ADME, organism-based; parameters: dose 10 mg/kg, route oral; conditions: read-out: BPR
[24] = Half life in C57 albino mouse at 10 mg/kg, po; assay type: ADME, organism-based; parameters: dose 10 mg/kg, route oral; conditions: in vivo
[25] = AUC (0 to infinity) in C57 albino mouse at 10 mg/kg, po; assay type: ADME, organism-based; parameters: time infinity, dose 10 mg/kg, route oral; conditions: plasma
[26] = Clearance in C57 albino mouse plasma at 1 mg/kg, iv; assay type: ADME, organism-based; parameters: dose 1 mg/kg, route intravenous
RBL = assay: Ratio of EC50 for TPH1 in RBL cells to IC50 for TPH1; assay type: cell-based

Nc1nc(OC(c2sccc2-c2ccco2)C(F)(F)F)cc(-c2ccc(C[C@H](N)C(=O)O)cc2)n1 (some centres not stated)
IC50 [1]: 0.054 µM
EC50 [2]: 0.063 µM

N[C@@H](Cc1ccc(-c2cnc(NCC3CCCCC3)cn2)cc1)C(=O)O
IC50 [1]: 0.24 µM

C[C@@H](Nc1nc(N)nc(-c2ccc(C(N)CC(=O)O)cc2)n1)c1ccc2ccccc2c1 (some centres not stated)
IC50 [1]: 3.77 µM

COc1ccc(CNc2cnc(-c3ccc(C[C@H](N)C(=O)O)cc3)cn2)cc1OC1CCCC1
IC50 [1]: 0.045 µM

CCn1c2ccccc2c2cc(CNc3ccc(-c4ccc(C[C@H](N)C(=O)O)cc4)nc3)ccc21
IC50 [1]: > 10 µM

Nc1nc(NCc2ccc3ccccc3c2)nc(-c2ccc(C[C@H](N)C(=O)O)cc2)n1
IC50 [1]: 0.024 µM

N#Cc1ccc(CNc2cnc(-c3ccc(C[C@H](N)C(=O)O)cc3)cn2)cc1
IC50 [1]: 0.11 µM

COc1ccc(CNc2ccc(-c3ccc(C[C@H](N)C(=O)O)cc3)cc2)cc1OC1CCCC1
IC50 [1]: > 10 µM

C[C@@H](Nc1nc(N)nc(-c2ccn(C[C@H](N)C(=O)O)n2)n1)c1ccc2ccccc2c1
IC50 [1]: 12.6 µM

N[C@@H](Cc1ccc(-c2cnc(NCc3ccoc3)cn2)cc1)C(=O)O
IC50 [1]: 0.96 µM

Nc1nc(OC(c2ccccc2-c2ccco2)C(F)(F)F)cc(-c2ccc(C[C@H](N)C(=O)O)cc2)n1 (some centres not stated)
IC50 [1]: 0.024 µM
EC50 [2]: 0.048 µM

N[C@@H](Cc1ccc(-c2cnc(NCc3ccc(-c4ccccc4)cc3)cn2)cc1)C(=O)O
IC50 [1]: 0.044 µM

COc1ccc(CNc2ccc(-c3ccc(C[C@H](N)C(=O)O)cc3)nn2)cc1OC1CCCC1
IC50 [1]: 0.97 µM

N[C@@H](Cc1ccc(-c2cnc(NCc3ccccn3)cn2)cc1)C(=O)O
IC50 [1]: 6.15 µM

C[C@@H](Nc1nc(N)nc(-c2ccc(CC(N)C(=O)O)nc2)n1)c1ccc2ccccc2c1 (some centres not stated)
IC50 [1]: 0.89 µM

Nc1nc(OC(c2ccccc2-n2ccc(C(F)(F)F)n2)C(F)(F)F)cc(-c2ccc(C[C@H](N)C(=O)O)cc2)n1 (some centres not stated)
IC50 [1]: 0.029 µM
EC50 [2]: 0.07 µM

C[C@@H](Oc1cc(-c2ccc(C[C@H](N)C(=O)O)cc2)nc(N)n1)c1ccc2ccccc2c1
IC50 [1]: 0.38 µM
EC50 [2]: 11 µM

Cc1ccccc1-c1ccccc1CNc1cnc(-c2ccc(C[C@H](N)C(=O)O)cc2)cn1
IC50 [1]: 0.04 µM

C[C@@H](Nc1nc(N)nc(-c2cccc(CC(N)C(=O)O)c2)n1)c1ccc2ccccc2c1 (some centres not stated)
IC50 [1]: > 11 µM

C[C@@H](Nc1nc(N)nc(-c2ccc(CC(N)C(=O)O)c(F)c2)n1)c1ccc2ccccc2c1 (some centres not stated)
IC50 [1]: 0.2 µM

CCn1c2ccccc2c2cc(CNc3cnc(-c4ccc(C[C@H](N)C(=O)O)cc4)cn3)ccc21
IC50 [1]: 0.031 µM

CCOC(=O)[C@@H](N)Cc1ccc(-c2cc(OC(c3ccc(-c4cccc(F)c4)cc3)C(F)(F)F)nc(N)n2)cc1 (some centres not stated)
Activity (Mus musculus [3]): Active
Activity (Mus musculus [4]): Active
Activity (Mus musculus [5]): inactive
Activity (Mus musculus [6]): Active

N[C@@H](Cc1ccc(-c2cnc(NCc3ccc4ccccc4c3)cn2)cc1)C(=O)O
IC50 [1]: 0.013 µM

N[C@@H](Cc1ccc(-c2cnc(NCc3cnc4ccccc4c3)cn2)cc1)C(=O)O
IC50 [1]: 0.19 µM

N[C@@H](Cc1ccc(-c2cnc(NCC3CCc4ccccc4C3)cn2)cc1)C(=O)O (some centres not stated)
IC50 [1]: 0.046 µM

Cc1cccc(-c2ccccc2C(Oc2cc(-c3ccc(C[C@H](N)C(=O)O)cc3)nc(N)n2)C(F)(F)F)c1 (some centres not stated)
IC50 [1]: 0.07 µM
EC50 [2]: 0.056 µM

COc1ccc(CNc2cnc(-c3ccc(C[C@H](N)C(=O)O)cc3)cn2)cc1OC
IC50 [1]: 0.069 µM

C[C@@H](Nc1nc(N)nc(-c2ccc(CC(C)(N)C(=O)O)cc2)n1)c1ccc2ccccc2c1 (some centres not stated)
IC50 [1]: 11.1 µM

C[C@@H](Nc1cc(-c2ccc(C[C@H](N)C(=O)O)cc2)nc(N)n1)c1ccc2ccccc2c1
IC50 [1]: 0.032 µM
EC50 [2]: 1.7 µM

Nc1nc(OC(c2ccc(-c3cccc(F)c3)cc2)C(F)(F)F)cc(-c2ccc(C[C@H](N)C(=O)O)cc2)n1 (some centres not stated)
Vd [7]: 0.73 L/kg
half-life [8]: 3.26 h
Tmax [9]: 3.25 h
Cmax [10]: 641 nM
AUC(0-t) at 6 h [11]: 6.2 µM·h
AUC(0-t) at 24 h [12]: 6.09 µM·h
AUC(0-inf) [13]: 8.54 µM·h
bioavailability [14]: 7.6%
concentration at 2 h [15]: 6.05 nM
concentration at 6 h [16]: 6.15 nM
concentration at 24 h [17]: 0.38 nM
Activity (Mus musculus [18]): 55%
Activity (Mus musculus [19]): 70%
Activity (Mus musculus [20]): 24%
Activity (Mus musculus [21]): 36%
Kp at 2 h [22]: 0.01
Kp at 6 h [23]: 0.01
half-life [24]: 5.98 h
AUC(0-inf) [25]: 6.5 µM·h
clearance [26]: 3.33 mL/min/kg

C[C@@H](Nc1nc(N)nc(N2CCC(C[C@H](N)C(=O)O)CC2)n1)c1ccc2ccccc2c1
IC50 [1]: 0.77 µM

Nc1nc(OC(c2ccc3ccccc3c2)C(F)(F)F)cc(-c2ccc(C[C@H](N)C(=O)O)cc2)n1 (some centres not stated)
Ratio (RBL): 3
IC50 [1]: 0.18 µM
EC50 [2]: 0.51 µM
